In patent EP1137645B1, “ALPHA-METHYLBENZYL-CONTAINING THIOUREA INHIBITORS OF HERPES VIRUSES CONTAINING A […] GROUP” (Wyeth, priority 1998, dated 2000):
Values after ≈ are worked out from the molar mass of the structure shown.

Experiments:
HSV- I = assay: HSV antiviral (ELISA) assay; assay type: cell-based; conditions: HSV- I, Vero cells, ELISA; for IC50: read-out: IC50 (ug/ml) HSV
Outline: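 Vero cells in DMEM with 2% FBS treated with compound 30 min before HSV-1 infection (MOI 0.006), then incubated ~24 h at 37°C. Viral replication measured by ELISA against glycoprotein D with β-galactosidase-linked secondary and fluorogenic substrate (ex 365/em 450 nm); IC50 relative to untreated fluorescence.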

[1] = system: HCMV recombinant mutant virus whose genome contains the prokaryotic beta-glucuronidase gene; assay: microbe, parasite or virus in culture; assay type: cell-based, human cytomegalovirus; conditions: for IC50: Human betaherpesvirus 5, Fibroblast, read-out: IC50 ug/ml HCMV; for IC50 ug/ml HCMV: human foreskin fibroblasts
Outline: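 Human foreskin fibroblasts infected with HCMV recombinant carrying beta-glucuronidase under a viral promoter (e.g. RV145) in presence of compound. At 96 h post-infection, lysates assayed for beta-glucuronidase by colorimetric or fluorogenic substrate as replication readout; IC50 estimated from varying compound amounts.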

VZV strain Ellen = assay: VZV antiviral (ELISA) assay; assay type: cell-based; conditions: VZV strain Ellen, HFF cells, ELISA; for IC50: Human alphaherpesvirus 3, read-out: IC50 (ug/ml) VZV
Outline: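 HFF cells infected with VZV Ellen at multiplicity below 0.1 overnight, then mixed infected/uninfected cells seeded with compound in DMEM/2% FBS and incubated three days at 37°C, 5% CO2.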

CC(NC(=S)Nc1ccc(NC(=O)c2cccc(C#N)c2)cc1)c1ccc(F)cc1 (stereo not shown) [Example 1020, 3-Cyano-N-(4-{3-[1-(4-fluoro-phenyl)-ethyl]-thioureido}-phenyl)-benzamide]
IC50 (HSV- I): > 10 µg/mL
IC50 [1]: 6.5 µg/mL (≈ 15.5 µM)
IC50 (VZV strain Ellen): 6.3 µg/mL (≈ 15.1 µM)

CC(NC(=S)Nc1ccc(NC(=O)c2ccc(C(F)(F)F)cc2)cc1)c1ccc(F)cc1 (stereo not shown) [Example 1021, N-(4-{3-[1-(4-Fluoro-phenyl)-ethyl]-thioureido}-phenyl)-4-trifluoromethyl-benzamide]
IC50 (HSV- I): > 10 µg/mL
IC50 [1]: > 10 µg/mL
IC50 (VZV strain Ellen): 0.4 µg/mL (≈ 0.867 µM)

CC(NC(=S)Nc1ccc(NC(=O)c2ccc(C#N)cc2)cc1)c1ccc(F)cc1 (stereo not shown) [Example 1022, 4-Cyano-N-(4-{3-[1-(4-fluoro-phenyl)-ethyl]-thioureido}-phenyl)-benzamide]
IC50 (HSV- I): > 10 µg/mL
IC50 [1]: 4.4 µg/mL (≈ 10.5 µM)
IC50 (VZV strain Ellen): 1.5 µg/mL (≈ 3.58 µM)

N-(4-{3-[1-(4-Bromo-phenyl)-ethyl]-thioureido}-phenyl)-2-methoxy-benzamide [Example 1019]
IC50 (ug/ml) HSV (HSV- I): >10 µg/mL
IC50 ug/ml HCMV [1]: 2.6 µg/mL
IC50 (ug/ml) VZV (VZV strain Ellen): 0.05 µg/mL

N-{4-[3-(3-Chloro-4-methoxy-phenyl)-thioureido]-phenyl}-4-methoxy-benzamide [Example 821]
IC50 (ug/ml) HSV (HSV- I): 0.15 µg/mL
IC50 ug/ml HCMV [1]: 1 µg/mL
% inhibition 10 ug/ml VZV (VZV strain Ellen; 10 ug/ml): 55%
IC50 (ug/ml) VZV (VZV strain Ellen): >10 µg/mL
